From US8383637B2, “2-amino-quinazoline derivatives useful as inhibitors of β-secretase (BACE)” (Jansssen Pharmaceutica N.V., priority 2004, dated 2013)
Like-named read-outs stand apart in the source and are kept apart here.

Target: T1, β-secretase(BACE) (Homo sapiens, UniProt P56817)
T1 construct: purchased Panvera
Experiment: BACE FS1% Inhibition Assay
Assay type: biochemical
Conditions: FS1 substrate; for % Inhibition (FS) 10 μM: 10 μM test compound
Procedure: BACE FS1% Inhibition Assay The following reagents were used in this assay: sodium acetate, PEG8000 (Sigma), DMSO, HEPES, FS1 substrate [[…]] […] The FS1-substrate stock solution was prepared in DMSO as a 10 mg/mL solution. The FS1-substrate working solution was prepared by diluting the 10 mg/mL stock solution with substrate assay buffer to a final concentration of 300 μg/mL. The β-secretase (BACE) working solution was prepared by diluting a 0.83 mg/mL BACE stock solution with enzyme assay buffer to a final concentration of 4 μg/mL. Test compounds were dissolved in DMSO to 10 mM. […] The screening procedure for this assay was as follows: 15 μL of BACE working solution was pipetted into each well of a 96-well plate. To each well was then pipetted 2 μL of test compound at the selected concentration. Test compound and BACE were then mixed with a pipettor and incubated for 20 min at room temperature. To each well was then added 10 μL of the FS1 substrate working solution. The plates were then incubated for 1 hour at room temperature. […] The procedure for the blank was as follows. 15 μL of assay buffer was pipetted into each well to be used as a blank control. To each well was then added 2 μL of vehicle and 10 μL of FS1-substrate working solution. The plates were then incubated for 1 hour at room temperature. […] The procedure for the positive control was as follows: 15 μL of BACE working solution was pipetted into each well to be used as a positive control. To each well was then pipetted 2 μL of vehicle. Vehicle and BACE were then mixed with a pipettor and incubated for 20 min at room temperature. To each well was then added 10 μL of the FS1 substrate working solution. The plates were then incubated for 1 hour at room temperature. […] For test compounds, % inhibition was determined at each concentration as follows: [formula]

[1] = 0.3 μM test compound, read-out: % Inhibition (FS)
[2] = 1 μM test compound, read-out: % Inhibition (FS)
[3] = 3 μM test compound, read-out: % Inhibition (FS)

T1 sequence (P56817 46-501): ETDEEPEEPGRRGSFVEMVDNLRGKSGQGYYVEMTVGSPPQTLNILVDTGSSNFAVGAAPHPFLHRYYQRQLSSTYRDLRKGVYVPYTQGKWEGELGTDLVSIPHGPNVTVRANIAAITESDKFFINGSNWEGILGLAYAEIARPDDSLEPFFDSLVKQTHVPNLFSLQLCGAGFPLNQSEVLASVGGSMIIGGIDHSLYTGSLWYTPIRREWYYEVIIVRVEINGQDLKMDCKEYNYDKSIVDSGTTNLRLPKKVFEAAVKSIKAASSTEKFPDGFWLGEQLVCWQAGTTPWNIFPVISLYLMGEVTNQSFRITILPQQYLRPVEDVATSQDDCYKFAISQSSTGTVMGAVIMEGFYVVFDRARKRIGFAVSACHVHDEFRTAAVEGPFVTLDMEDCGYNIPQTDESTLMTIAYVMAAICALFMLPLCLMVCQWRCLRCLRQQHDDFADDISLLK

Row | % Inhibition (FS) 0.3 μM (0.3 μM test compound) [%] | % Inhibition (FS) 1 μM (1 μM test compound) [%] | % Inhibition (FS) 3 μM (3 μM test compound) [%] | Structure (SMILES) | also measured
1 | <30 | <30 | <30 | NC1=Nc2ccc(Oc3ccccc3)cc2CN1Cc1cccc(C(=O)NCCc2ccc(S(N)(=O)=O)cc2)c1 [Compound 188] | 
2 |  |  | <30 | CCCCCCCCCC(=O)NCCN1Cc2cc(Oc3ccccc3)ccc2N=C1N [Compound 142] | % Inhibition (FS) 10 μM: 38%
3 |  |  |  | CC(C)CCC(=O)NCCN1Cc2cc(-c3cnc4ccccc4c3)ccc2N=C1N [Compound 675] | % Inhibition (FS) (0.3 μM test compound): 35%; % Inhibition (FS) (1 μM test compound): <30%; % Inhibition (FS) (3 μM test compound): <30%
4 | <30 | 51 | 96 | NC1=Nc2ccc(-c3ccccc3Cl)cc2CN1CCNC(=O)C12CC3CC(CC(C3)C1)C2 [Compound 651] | 
5 | <30 |  |  | NC1=Nc2ccc(-c3ccc(F)cc3)cc2CN1CCNC(=O)C1CCCCC1 [Compound 623] | % Inhibition (FS) 1 μM (1 μM test compound, 1 µM): <30%; % Inhibition (FS) 3 μM (3 μM test compound, 3 µM): 82%
6 | <30 | 32 | 36 | CN(C(=O)c1cccc(CN2Cc3cc(Oc4ccc5c(c4)CCCC5)ccc3N=C2N)c1)C1CCCCC1 [Compound 233] | 
7 |  |  |  | CC(C)(C)C(=O)NCCN1Cc2cc(Br)ccc2N=C1N [Compound 809] | inhibition at 0.3 µM [1]: < 30%; inhibition at 1 µM [2]: < 30%; inhibition at 3 µM [3]: 32%
8 | <30 | 42 | 38 | CCCCCC1CC2(C(=O)NCCN3Cc4cc(Oc5ccccc5)ccc4N=C3N)CCC1CC2 (centres unmarked) [Compound 194] | 
9 | <30 | <30 | 51 | CN(C(=O)c1cccc(CN2Cc3cc(Oc4ccccc4C4CCCC4)ccc3N=C2N)c1)C1CCCCC1 [Compound 512] | 
10 |  |  |  | NC1=Nc2ccc(-c3cnc4ccccc4c3)cc2CN1CCNC(=O)C1CCC1 [Compound 670] | % Inhibition (FS) (0.3 μM test compound): <30%; % Inhibition (FS) (1 μM test compound): <30%; % Inhibition (FS) (3 μM test compound): 44%
11 | <30 | <30 | 36 | NC1=Nc2ccc(Oc3ccccc3)cc2CN1Cc1cccc(NC(=O)C2CCCCC2)c1 [Compound 286] | 
12 | <30 | <30 | 67 | CCCCCCCCC(CCC(=O)NC1CCCCCC1)N1Cc2cc(Oc3ccccc3)ccc2N=C1N (centres unmarked) [Compound 208] | 
13 | <30 | <30 | 48 | COc1ccc(C)cc1-c1ccc2c(c1)CN(CCNC(=O)C1CCCCC1)C(N)=N2 [Compound 630] | 
14 | <30 | <30 | <30 | CN(C(=O)c1cccc(CN2Cc3cc(Oc4ccccc4S(C)(=O)=O)ccc3N=C2N)c1)C1CCCCC1 [Compound 472] | 
15 |  |  |  | CN(C(=O)CC[C@@H](C1CCCCC1)N1Cc2ccc(Oc3ccccc3)cc2N=C1N)C1CCCCC1 [Compound 754] | % Inhibition (FS) (0.3 μM test compound): 8%; % Inhibition (FS) (1 μM test compound): 35%; % Inhibition (FS) (3 μM test compound): 89%
16 |  |  | <30 | NC1=Nc2ccc(Oc3ccccc3)cc2CN1C(CNC(=O)C1CCCCC1)Cc1ccc(O)cc1 (centres unmarked) [Compound 616] | 
17 | <30 | <30 | <30 | CCCC(=O)NCCN1Cc2cc(-c3ccncc3)ccc2N=C1N [Compound 570] | 
18 | <30 | <30 | 49 | COc1ccccc1Sc1ccc2c(c1)CN(Cc1cccc(C(=O)N(C)C3CCCCC3)c1)C(N)=N2 [Compound 412] | 
19 | 34 | 65 | 95 | NC1=Nc2ccc(-c3ccccc3Cl)cc2CN1CCNC(=O)C1CCC1 [Compound 649] | 
20 | <30 | 34 | 95 | Cc1ccc(Sc2ccc3c(c2)CN(Cc2cccc(C(=O)N(C)C4CCCCC4)c2)C(N)=N3)cc1C [Compound 408] | 
21 |  |  |  | COc1ccccc1-c1ccc2c(c1)CN([C@@H](CCC(=O)N(C)Cc1csc(-c3ccccc3)n1)C1CCCCC1)C(N)=N2 [Compound 716] | % Inhibition (FS) (0.3 μM test compound): <30%; % Inhibition (FS) (1 μM test compound): <30%; % Inhibition (FS) (3 μM test compound): 72%

Row | % Inhibition (FS) 0.3 μM (0.3 μM test compound) [%] | % Inhibition (FS) 1 μM (1 μM test compound) [%] | % Inhibition (FS) 3 μM (3 μM test compound) [%] | Structure (SMILES) | also measured
22 | <30 | <30 | 45 | CC(=O)c1ccccc1-c1ccc2c(c1)CN(Cc1cccc(C(=O)N(C)C3CCCCC3)c1)C(N)=N2 [Compound 323] | 
23 | <30 | <30 | 85 | Cc1cccc(Nc2ccc3c(c2)CN(Cc2cccc(C(=O)N(C)C4CCCCC4)c2)C(N)=N3)c1 [Compound 435] | 
24 |  |  | <30 | NC1=Nc2ccc(Oc3ccccc3)cc2CN1CCCNC(=O)C1CC1 [Compound 143] | % Inhibition (FS) 10 μM: 32%
25 |  |  |  | COc1ccccc1-c1ccc2c(c1)CN([C@@H](CCC(=O)N(C)Cc1cnn(-c3ccccc3)c1)C1CCCCC1)C(N)=N2 [Compound 717] | % Inhibition (FS) (0.3 μM test compound): 33%; % Inhibition (FS) (1 μM test compound): 39%; % Inhibition (FS) (3 μM test compound): 72%
26 |  |  |  | CC(C)(C)OC(=O)N1CCC(N2Cc3cc(Oc4ccccc4)ccc3N=C2N)CC1 [Compound 499, 4-(2-Amino-6-phenoxy-4H-quinazolin-3-yl)-piperidine-1-carboxylic acid tert-butyl ester] | inhibition at 0.3 µM (0.3 μM test compound, read-out: % Inhibition (FS) 0.3 μM): < 30%; inhibition at 1 µM (1 μM test compound, read-out: % Inhibition (FS) 1 μM): < 30%; inhibition at 3 µM (3 μM test compound, read-out: % Inhibition (FS) 3 μM): < 30%
27 | <30 | <30 | <30 | CCCC=Cc1ccc2c(c1)CN(CCNC(=O)CCC)C(N)=N2 [Compound 571] | 
28 |  |  |  | CN(C(=O)CC(c1ccccc1)N1Cc2cc(F)ccc2N=C1N)C1CCCCC1 (centres unmarked) [Compound 803] | inhibition at 0.3 µM [1]: < 30%; inhibition at 1 µM [2]: < 30%; inhibition at 3 µM [3]: < 30%
29 | <30 | 46 | 88 | CC1CCC(C(=O)NCCN2Cc3cc(Oc4ccccc4)ccc3N=C2N)CC1 (centres unmarked) [Compound 191] | 
30 | <30 | <30 | <30 | CC(C)(C)OC(=O)Nc1cccc(CN2Cc3cc(Oc4ccccc4)ccc3N=C2N)c1 [Compound 224] | 
31 | <30 | <30 | 31 | COc1ccccc1Oc1ccc2c(c1)CN(Cc1cccc(C(=O)N(C)C3CCCCC3)c1)C(N)=N2 [Compound 232] | 
32 |  |  |  | COc1ccccc1-c1ccc2c(c1)CN([C@@H](CCC(=O)N(C)Cc1cc(C)no1)C1CCCCC1)C(N)=N2 [Compound 718] | % Inhibition (FS) (0.3 μM test compound): <30%; % Inhibition (FS) (1 μM test compound): 30%; % Inhibition (FS) (3 μM test compound): 114%
33 | 101 | 114 | 122 | CCC[C@H](CNC(=O)CCC(C)C)N1Cc2cc(Oc3ccccc3)ccc2N=C1N [Compound 603] | 
34 | 43 | 69 | 100 | CCCC(=O)NCCN1Cc2cc(-c3ccccc3C)ccc2N=C1N [Compound 659] | 
35 |  |  |  | NC1=Nc2ccc(-c3ccccc3)cc2CN1CCNC(=O)CCC(F)(F)F [Compound 684] | % Inhibition (FS) (0.3 μM test compound): 33%; % Inhibition (FS) (1 μM test compound): 38%; % Inhibition (FS) (3 μM test compound): 78%
36 | <30 | <30 | <30 | CN(C(=O)c1ccccc1CN1Cc2cc(Oc3ccccc3)ccc2N=C1N)C1CCCCC1 [Compound 463] | 
37 |  |  |  | CN(C(=O)c1cccc(CN2Cc3ccccc3N=C2N)c1)C1CCCCC1 [Compound 801] | inhibition at 0.3 µM [1]: < 30%; inhibition at 1 µM [2]: < 30%; inhibition at 3 µM [3]: < 30%
38 | <30 | <30 | <30 | CN(C)c1ccc(C(=O)NCCN2Cc3cc(Oc4ccccc4)ccc3N=C2N)cc1 [Compound 189] | 
39 | <30 | 58 | 101 | CSc1ccc(Nc2ccc3c(c2)CN(Cc2cccc(C(=O)N(C)C4CCCCC4)c2)C(N)=N3)cc1 [Compound 442] | 
40 |  |  |  | CN(C(=O)CCC(C1CCCCC1)N1Cc2cc(Oc3ccccc3)ccc2N=C1N)C1CCC(c2nn[nH]n2)CC1 (centres unmarked) [Compound 770] | % Inhibition (FS) (0.3 μM test compound): <30%; % Inhibition (FS) (1 μM test compound): <30%; % Inhibition (FS) (3 μM test compound): <30%
41 | <30 | <30 | 46 | NC1=Nc2ccc(Oc3ccccc3)cc2CN1Cc1cccc(CNC(=O)C2CCCCC2)c1 [Compound 306] | 
